According to US20210353706A1, “INHIBITION OF ENDOGENOUS REVERSE TRANSCRIPTASE AND TARGETING OF CELLS FOR PROPHYLAXIS AND THERAPY OF CANCER AND AGING” (Health Research, Inc., priority 2017, published 2021):

What was measured:
LINE1 elements = assay: LINE1 retrotransposition assay (neo-resistant colonies after reporter plasmid transfection); type: cell-based; settings: HeLa cells transfected with reporter plasmid
Method: FIG. 2 depicts a work-flow for a LINE1 retrotransposition assay as described in Moran et al. Cell 1996 87(5):917-27 (shown in box to the left).
Retrotransposition assay was performed according to Moran et al. Cell. 1996 87(5):917-27 (scheme shown to the left). HeLa cells were transfected with the reporter plasmid; appearance of neo-resistant colonies is indicative of retrotransposition events. […] It is accordingly expected that other RT inhibitors will have similar utility.

[1] = system: colorectal cancer cells HCT116; assay: Acquisition of PALA-resistant colonies (CAD gene amplification); type: cell-based, human; settings: for number of PALA resistant colonies: HCT116 grown in presence of indicated non-toxic concentrations of RT inhibitor
Excerpt: Gene amplification can be assessed by measuring the frequency of occurrence of cell variants resistant to N-phosphonoacetyl-L-aspartate (PALA), a small molecule inhibitor of aspartate transcarbamylase of CAD protein essential for UMP biosynthesis. In human cells, PALA resistance is associated almost solely with CAD overexpression due to amplification of the CAD gene. Therefore, this can serve as a quantitative indicator of gene amplification. Usually undetectable in normal cells, gene amplification frequency can be as high as 10-5 in tumor cells. The finding that p53 inactivation and DNA demethylation by decitabine both greatly increase the frequency of gene amplification support the possibility of involvement of retroelements (which are inhibited at the epigenetic level by p53 and DNA methylation) in this process.
Right panel illustrates the data shown in the graph as images of tissue culture plates treated and untreated with RT inhibitors in the presence and in the absence of PALA. Sensitivity of HCT116 cells to RT inhibitors alone were determined using quantitation of adherent cells following 72 hours of incubation in the presence of a range of concentrations of RT inhibitors (curves in the graph with the scale of cell viability shown on the right).

HeLa cells = assay: Clonogenicity of HeLa cells; type: cell-based; settings: indicated concentrations of stavudine
[2] = system: Th-MYCN transgenic mice (spontaneous neuroblastomas); assay: Tumor relapse after chemotherapy in mouse spontaneous neuroblastoma model; type: in vivo
Excerpt: In particular, 100% of Th-MYCN transgenic mice (strain 129X1/SvJ-Tg(TH-MYCN)41Waw/Nci) homozygous for MYCN transgene develop spontaneous neuroblastomas in their abdomens around 30 days of age. Mice carrying this transgene show many of the features of the human childhood disease including sensitivity to conventional treatments. Indicated treatments were started at the times of first appearance of palpable tumors.

SMILES: Cc1cn([C@H]2C=C[C@@H](CO)O2)c(=O)[nH]c1=O [stavudine]
- concentrations at which stavudine is effective in inhibiting LINE1 retrotransposition (LINE1 elements): above 5 mM
- number of PALA resistant colonies [1]: greatly decreased
- number of PALA resistant colonies ([1]; listed as STV): dramatically reduces
- frequency of gene amplification in vitro ([1]; tumor cells in vitro): greatly reduced
- effect on clonogenicity of HeLa cells (HeLa cells): lack of effect
- antitumor effect of stavudine alone ([2]; 1.5 mg/ml in drinking water, no chemotherapy): no detectable antitumor effect
- extension of average tumor-free survival ([2]; continuous stavudine 1.5 mg/ml in drinking water with cyclophosphamide and topotecan): nearly two-fold
- proportion of disease free animals with no relapses detected within >100 days of observation ([2]; continuous stavudine with cyclophosphamide and topotecan): significantly increased
